Measurements: patent US10913738B2 (BRISTOL-MYERS SQUIBB COMPANY, priority 2017, dated 2021)
Read-outs that look alike come from different tables or passages of the source.

Tests used:
[1] = target: T1, His-GST-TVMV-hRIPK1(1-324) (Homo sapiens, UniProt Q13546); test: RIPK1 HTRF Binding Assay
T1 construct: The coding region of human RIPK1(1-324) flanked by NdeI site at 5′ end; made in house; host or cells: Spodoptera frugiperda (Sf9) insect cells, baculovirus
T1 sequence (Q13546 1-324): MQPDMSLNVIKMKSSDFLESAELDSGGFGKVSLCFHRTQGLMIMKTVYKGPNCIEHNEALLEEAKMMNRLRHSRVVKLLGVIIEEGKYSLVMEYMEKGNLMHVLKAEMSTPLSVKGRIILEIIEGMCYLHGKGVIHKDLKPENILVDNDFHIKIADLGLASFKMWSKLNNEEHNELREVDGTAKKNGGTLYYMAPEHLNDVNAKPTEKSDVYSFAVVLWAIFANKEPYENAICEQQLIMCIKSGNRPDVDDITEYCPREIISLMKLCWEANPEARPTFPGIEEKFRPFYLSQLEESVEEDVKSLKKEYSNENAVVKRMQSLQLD

[2] = test system: MLKL phosphorylation in HT29-L23 human colorectal adenocarcinoma cells; test: MLKL Phosphorylation High-Content Assay; format: cell-based; conditions: Homo sapiens
How it was run: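 Cells incubated six hours at 37° C., then phospho-MLKL (S358) immunostained overnight at 4° C. and imaged by high-content microscopy. Phosphorylation quantified as mean circ-ring average intensity ratio; IC50 and Ymax from 4-parameter logistic fits.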

[3] = x marks IC50 class 20-200 nM, read-out: RIPK1 HTRF binding 20-200 nM
[4] = x marks IC50 class >200 nM, read-out: pMLKL cell activity >200 nM
[5] = x marks IC50 class <20 nM, read-out: RIPK1 HTRF binding <20 nM
[6] = x marks IC50 class <20 nM, read-out: pMLKL cell activity <20 nM
[7] = x marks IC50 class 20-200 nM, read-out: pMLKL cell activity 20-200 nM

Row | SMILES | IC50 [1, 3] [nM] | IC50 [2, 4] [nM] | IC50 [1, 5] [nM] | IC50 [2, 6] [nM] | IC50 [2, 7] [nM]
1 | COc1ccc(-c2ccn3nc(N)nc3c2)nc1C(=O)N[C@H](C)c1cc(OC(F)(F)F)ccc1F [Example 406, (R)-6-(2-amino-[1,2,4]triazolo[1,5-a]pyridin-7-yl)-N-(1-(2-fluoro-5-(trifluoromethoxy)phenyl)ethyl)-3-methoxypicolinamide] | 20 to 200 | > 200 | – | – | –
2 | COc1ncc(C(=O)NCc2cc(F)ccc2OC2CCCC2)cc1-c1ccn2nc(N)nc2c1 [Example 27, 5-{2-Amino-[1,2,4]triazolo[1,5-a]pyridin-7-yl}-N-{[2-(cyclopentyloxy)-5-fluorophenyl]methyl}-6-methoxypyridine-3-carboxamide] | – | – | < 20 | < 20 | –
3 | COc1ncc(-c2ccn3nc(N)nc3c2)cc1C(=O)N1CCCC(Cc2ccc(C)cc2)C1 (centres unmarked) [Example 121, 7-(6-methoxy-5-{3-[(4-methylphenyl)methyl]piperidine-1-carbonyl}pyridin-3-yl)-[1,2,4]triazolo[1,5-a]pyridin-2-amine] | 20 to 200 | – | – | – | 20 to 200
4 | Cc1ncc(-c2ccn3nc(N)nc3c2)cc1C(=O)NCc1cc(F)ccc1OCC(F)(F)F [Example 309, 5-(2-amino-[1,2,4]triazolo[1,5-a]pyridin-7-yl)-N-(5-fluoro-2-(2,2,2-trifluoroethoxy)benzyl)-2-methylnicotinamide] | – | > 200 | < 20 | – | –
5 | COc1ccc(CC2CCCN(C(=O)c3cc(-c4ccn5nc(N)nc5c4)cnc3OC)C2)cc1 (centres unmarked) [Example 120, 7-(6-methoxy-5-{3-[(4-methoxyphenyl)methyl]piperidine-1-carbonyl}pyridin-3-yl)-[1,2,4]triazolo[1,5-a]pyridin-2-amine] | 20 to 200 | – | – | – | 20 to 200
6 | COc1ncc(-c2ccn3nc(N)nc3c2)cc1C(=O)Nc1cnn(C(C)c2ccc(F)cc2)c1 (single isomer, unassigned) [Example 76-1] | – | – | < 20 | < 20 | –
7 | COc1ncc(-c2ccn3nc(N)nc3c2)cc1C(=O)N1CCOC(Cc2ccccc2)C1 (centres unmarked) [Example 428, (5-(2-amino-[1,2,4]triazolo[1,5-a]pyridin-7-yl)-2-methoxypyridin-3-yl)(2-benzylmorpholino)methanone] | 20 to 200 | > 200 | – | – | –
8 | COc1cnc(-c2ccn3nc(N)nc3c2)cc1C(=O)NCCC(C)c1ccccc1 (centres unmarked) [Example 390, 2-(2-amino-[1,2,4]triazolo[1,5-a]pyridin-7-yl)-5-methoxy-N-(3-phenylbutyl)isonicotinamide] | 20 to 200 | > 200 | – | – | –
9 | COc1ncc(-c2ccn3nc(N)nc3c2)cc1C(=O)NCc1ccccc1Oc1ccc(F)cc1 [Example 110, 5-{2-amino-[1,2,4]triazolo[1,5-a]pyridin-7-yl}-N-{[2-(4-fluorophenoxy)phenyl]methyl}-2-methoxypyridine-3-carboxamide] | – | – | < 20 | < 20 | –
10 | Cc1ncc(-c2ccn3nc(N)nc3c2)cc1C(=O)NCC[C@H](O)c1ccc(Cl)cc1 [Example 225] | 20 to 200 | – | – | – | 20 to 200
11 | Cc1nc(C)c(-c2ccn3nc(N)nc3c2)cc1C(=O)NCc1cc(F)ccc1OCC1CCCC1 [Example 190, 5-{2-amino-[1,2,4]triazolo[1,5-a]pyridin-7-yl}-N-{[2-(cyclopentylmethoxy)-5-fluorophenyl]methyl}-2,6-dimethylpyridine-3-carboxamide] | – | – | < 20 | < 20 | –
12 | COc1ncc(-c2ccn3nc(N)nc3c2)cc1C(=O)NCc1cc(F)ccc1OC1CCCC1 [Example 142, 5-{2-amino-[1,2,4]triazolo[1,5-a]pyridin-7-yl}-N-{[2-(cyclopentyloxy)-5-fluorophenyl]methyl}-2-methoxypyridine-3-carboxamide] | – | – | < 20 | < 20 | –
13 | COc1ncc(-c2ccn3nc(N)nc3c2)cc1C(=O)NCc1cc(C(F)(F)F)ccc1Cl [Example 161, 5-{2-amino-[1,2,4]triazolo[1,5-a]pyridin-7-yl}-N-{[2-chloro-5-(trifluoromethyl)phenyl]methyl}-2-methoxypyridine-3-carboxamide] | – | – | < 20 | – | 20 to 200
14 | CCOc1ncc(-c2ccn3nc(N)nc3c2)cc1C(=O)NCc1ccccc1SC(C)C [Example 266, 5-{2-amino-[1,2,4]triazolo[1,5-a]pyridin-7-yl}-2-ethoxy-N-{[2-(propan-2-ylsulfanyl)phenyl]methyl}pyridine-3-carboxamide] | – | – | < 20 | – | 20 to 200
15 | Cc1ncc(C(=O)NCc2cc(F)cc(F)c2OCC2CCCC2)cc1-c1ccn2nc(N)nc2c1 [Example 259, 5-{2-amino-[1,2,4]triazolo[1,5-a]pyridin-7-yl}-N-{[2-(cylcopentylmethoxy)-3,5-difluorophenyl]methyl}-6-methylpyridine-3-carboxamide] | – | – | < 20 | – | 20 to 200
16 | COc1ncc(-c2ccn3nc(N)nc3c2)cc1C(=O)N1CCC[C@H](Cc2ccc(F)cc2)C1 [Example 134, 7-{5-[(3R)-3-[(4-fluorophenyl)methyl]piperidine-1-carbonyl]-6-methoxypyridin-3-yl}-[1,2,4]triazolo[1,5-a]pyridin-2-amine] | 20 to 200 | – | – | < 20 | –
17 | COc1nc(C)c(-c2ccn3nc(N)nc3c2)cc1C(=O)NCc1cc(F)cc(F)c1OCC1CC1 [Example 9, 5-{2-Amino-[1,2,4]triazolo[1,5-a]pyridin-7-yl}-N-{[2-(cyclopropylmethoxy)-3,5-difluorophenyl]methyl}-2-methoxy-6-methylpyridine-3-carboxamide] | – | – | < 20 | < 20 | –
18 | Cc1ncc(-c2ccn3nc(N)nc3c2)cc1C(=O)NCc1ccc(F)cc1OCC1CC1 [Example 24, 5-{2-Amino-[1,2,4]triazolo[1,5-a]pyridin-7-yl}-N-{[2-(cyclopropylmethoxy)-4-fluorophenyl]methyl}-2-methylpyridine-3-carboxamide] | 20 to 200 | > 200 | – | – | –
19 | COc1nc(C)c(-c2ccn3nc(N)nc3c2)cc1C(=O)NCc1cccnc1OCC1CCC1 [Example 209, 5-{2-amino-[1,2,4]triazolo[1,5-a]pyridin-7-yl}-N-{[2-(cyclobutylmethoxy)pyridin-3-yl]methyl}-2-methoxy-6-methylpyridine-3-carboxamide] | – | – | < 20 | – | 20 to 200
20 | Cc1nc(C)c(-c2ccn3nc(N)nc3c2)cc1C(=O)NCc1ncccc1OCC1CCCC1 [Example 182, 5-{2-amino-[1,2,4]triazolo[1,5-a]pyridin-7-yl}-N-{[3-(cyclopentylmethoxy)pyridin-2-yl]methyl}-2,6-dimethylpyridine-3-carboxamide] | – | – | < 20 | – | 20 to 200
21 | COc1ncc(-c2ccn3nc(N)nc3c2)cc1C(=O)NCc1cc(F)cc(F)c1OC1COC1 [Example 364, 5-(2-amino-[1,2,4]triazolo[1,5-a]pyridin-7-yl)-N-(3,5-difluoro-2-(oxetan-3-yloxy)benzyl)-2-methoxynicotinamide] | – | – | < 20 | – | 20 to 200
22 | COc1nc(C)c(-c2ccn3nc(N)nc3c2)cc1C(=O)NCc1cccnc1OC1CCCC1 [Example 34, 5-{2-Amino-[1,2,4]triazolo[1,5-a]pyridin-7-yl}-N-{[2-(cyclopentyloxy)pyridin-3-yl]methyl}-2-methoxy-6-methylpyridine-3-carboxamide] | – | – | < 20 | < 20 | –
23 | [2H]C([2H])(NC(=O)c1cc(-c2ccn3nc(N)nc3c2)c(C)nc1C)c1cc(OC(F)(F)F)ccc1F [Example 191] | – | – | < 20 | < 20 | –
24 | Cc1ncc(-c2ccn3nc(N)nc3c2)cc1C(=O)NCc1cc(F)cc(F)c1OC1CCOC1 (centres unmarked) [Example 317, 5-(2-amino-[1,2,4]triazolo[1,5-a]pyridin-7-yl)-N-(3,5-difluoro-2-((tetrahydrofuran-3-yl)oxy)benzyl)-2-methylnicotinamide] | 20 to 200 | > 200 | – | – | –
25 | Cc1ncc(-c2ccn3nc(N)nc3c2)cc1NC(=O)Cc1cc(OC(F)(F)F)ccc1F [Example 420, N-(5-(2-amino-[1,2,4]triazolo[1,5-a]pyridin-7-yl)-2-methylpyridin-3-yl)-2-(2-fluoro-5-(trifluoromethoxy)phenyl)acetamide] | – | – | < 20 | – | 20 to 200
26 | COc1ncc(-c2ccn3nc(N)nc3c2)cc1C(=O)NCc1c(F)cccc1OC(C)C [Example 29, 5-{2-Amino-[1,2,4]triazolo[1,5-a]pyridin-7-yl}-N-{[2-fluoro-6-(propan-2-yloxy)phenyl]methyl}-2-methoxypyridine-3-carboxamide] | – | – | < 20 | – | 20 to 200
27 | COc1ncc(-c2ccn3nc(N)nc3c2)cc1C(=O)NCc1ncccc1OCC1CC1 [Example 132, 5-{2-amino-[1,2,4]triazolo[1,5-a]pyridin-7-yl}-N-{[3-(cyclopropylmethoxy)pyridin-2-yl]methyl}-2-methoxypyridine-3-carboxamide] | 20 to 200 | – | – | – | 20 to 200
28 | Cc1cnc(-c2ccn3nc(N)nc3c2)cc1C(=O)NCc1cc(C(F)(F)F)ccc1F [Example 398, 2-(2-amino-[1,2,4]triazolo[1,5-a]pyridin-7-yl)-N-(2-fluoro-5-(trifluoromethyl)benzyl)-5-methylisonicotinamide] | 20 to 200 | – | – | – | 20 to 200
